# Test system: yeast genes (expressed mRNA)
# Test: DNA chip measurement of expressed mRNA of yeast genes after culture with a toxic chemical substance
# Type: cell-based, Saccharomyces cerevisiae S288C
# In short: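 Two-hour exposure of growing S. cerevisiae S288C (YPD, 25° C) to a sublethal toxicant preceded RNA isolation. Fluorescent cDNA was hybridized to a whole-genome array; a treated-to-untreated signal ratio of two or more was taken as significant.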
structure (smiles),measurement,setting,value
"CCCCC[C@H](O)CC(=O)CCc1ccc(O)c(OC)c1 [(13), Gingerol]","The level of expressed mRNA in the presence of chemical substance/The level of expressed mRNA in the absence of chemical substance, yeast gene YDL067C","gene YDL067C (mitochondria-located protein gene), yeast cultured two hours with chemical substance, DNA chip fluorescence ratio to control",0.6
same,"The level of expressed mRNA in the presence of chemical substance/The level of expressed mRNA in the absence of chemical substance, yeast gene YDR079W","gene YDR079W (mitochondria-located protein gene), yeast cultured two hours with chemical substance, DNA chip fluorescence ratio to control",1.3
same,level of expressed mRNA in the presence of chemical substance / level in the absence of chemical substance,"yeast gene YAL018C, cultured two hours with the chemical substance",1.3
same,The level of expressed mRNA in the presence of chemical substance/The level of expressed mRNA in the absence of chemical substance,"yeast gene YAR028W, cultured two hours with substance",1.4
same,level of expressed mRNA in the presence of chemical substance / level in the absence of chemical substance,"yeast gene YAR047C, cultured two hours with the chemical substance",1.4
same,level of expressed mRNA in the presence of chemical substance / level in the absence of chemical substance,"yeast gene YAR064W, cultured two hours with the chemical substance",1.1
same,level of expressed mRNA in the presence of chemical substance / level in the absence of chemical substance,"yeast gene YBL044W, cultured two hours with the chemical substance",0.7
same,The level of expressed mRNA in the presence of chemical substance/The level of expressed mRNA in the absence of chemical substance,"yeast gene YBL048W, cultured two hours with substance",2.7
same,level of expressed mRNA in the presence of chemical substance / level in the absence of chemical substance,"yeast gene YBR012C, cultured two hours with the chemical substance",2.1
same,The level of expressed mRNA in the presence of chemical substance/The level of expressed mRNA in the absence of chemical substance,"yeast gene YBR047W, cultured two hours with substance",1.7
same,The level of expressed mRNA in the presence of chemical substance/The level of expressed mRNA in the absence of chemical substance,"yeast gene YBR062C, cultured two hours with substance",2.8
same,level of expressed mRNA in the presence of chemical substance / level in the absence of chemical substance,"yeast gene YBR066C, cultured two hours with the chemical substance",0.6
same,level of expressed mRNA in the presence of chemical substance / level in the absence of chemical substance,"yeast gene YBR124W, cultured two hours with the chemical substance",0.9
same,level of expressed mRNA in the presence of chemical substance / level in the absence of chemical substance,"yeast gene YBR162C, cultured two hours with the chemical substance",0.7
same,The level of expressed mRNA in the presence of chemical substance/The level of expressed mRNA in the absence of chemical substance,"yeast gene YBR185C, mitochondria-located protein gene, cultured two hours with substance",1.0
same,level of expressed mRNA in the presence of chemical substance / level in the absence of chemical substance,"yeast gene YBR287W, cultured two hours with the chemical substance",3.4
same,level of expressed mRNA in the presence of chemical substance / level in the absence of chemical substance,"yeast gene YCL042W, cultured two hours with the chemical substance",7.5
same,level of expressed mRNA in the presence of chemical substance / level in the absence of chemical substance,"yeast gene YCL056C, cultured two hours with the chemical substance",1.3
same,level of expressed mRNA in the presence of chemical substance / level in the absence of chemical substance,"yeast gene YCR007C, cultured two hours with the chemical substance",1.5
same,The level of expressed mRNA in the presence of chemical substance/The level of expressed mRNA in the absence of chemical substance,"yeast gene YCR030C, cultured two hours with the chemical substance",1.7
same,level of expressed mRNA in the presence of chemical substance / level in the absence of chemical substance,"yeast gene YDL046W, cultured two hours with the chemical substance",1.5
same,The level of expressed mRNA in the presence of chemical substance/The level of expressed mRNA in the absence of chemical substance,"yeast gene YDL174C, cultured for two hours with substance",5.9
same,The level of expressed mRNA in the presence of chemical substance/The level of expressed mRNA in the absence of chemical substance,"yeast gene YDR001C, cultured for two hours with substance",2.8
same,level of expressed mRNA in the presence of chemical substance / level in the absence of chemical substance,"yeast gene YDR090C, cultured two hours with the chemical substance",0.8
same,level of expressed mRNA in the presence of chemical substance / level in the absence of chemical substance,"yeast gene YDR128W, cultured two hours with the chemical substance",1.1
same,level of expressed mRNA in the presence of chemical substance / level in the absence of chemical substance,"yeast gene YDR133C, cultured two hours with the chemical substance",0.1
same,The level of expressed mRNA in the presence of chemical substance/The level of expressed mRNA in the absence of chemical substance,"yeast gene YDR214W, cultured two hours with substance",5.3
same,level of expressed mRNA in the presence of chemical substance / level in the absence of chemical substance,"yeast gene YDR250C, cultured two hours with the chemical substance",1.2
same,level of expressed mRNA in the presence of chemical substance / level in the absence of chemical substance,"yeast gene YDR278C, cultured two hours with the chemical substance",0.7
same,level of expressed mRNA in the presence of chemical substance / level in the absence of chemical substance,"yeast gene YDR281C, cultured two hours with the chemical substance",0.7
same,level of expressed mRNA in the presence of chemical substance / level in the absence of chemical substance,"yeast gene YDR366C, cultured two hours with the chemical substance",0.8
same,The level of expressed mRNA in the presence of chemical substance/The level of expressed mRNA in the absence of chemical substance,"yeast gene YDR377W, mitochondria-located protein gene, cultured two hours with substance",0.7
same,The level of expressed mRNA in the presence of chemical substance/The level of expressed mRNA in the absence of chemical substance,"yeast gene YDR486C, cultured two hours with substance",1.7
same,The level of expressed mRNA in the presence of chemical substance/The level of expressed mRNA in the absence of chemical substance,yeast gene YDR506C,0.3
same,The level of expressed mRNA in the presence of chemical substance/The level of expressed mRNA in the absence of chemical substance,"yeast gene YDR533C, cultured two hours with substance",3.0
same,The level of expressed mRNA in the presence of chemical substance/The level of expressed mRNA in the absence of chemical substance,"yeast gene YEL024W, mitochondria-located protein gene, cultured two hours with substance",0.6
same,The level of expressed mRNA in the presence of chemical substance/The level of expressed mRNA in the absence of chemical substance,"yeast gene YER037W, cultured two hours with substance",3.0
same,The level of expressed mRNA in the presence of chemical substance/The level of expressed mRNA in the absence of chemical substance,"yeast gene YER079W, cultured two hours with substance",2.1
same,The level of expressed mRNA in the presence of chemical substance/The level of expressed mRNA in the absence of chemical substance,"yeast gene YFL014W, DNA repair protein genes, cultured two hours with substance",15.2
same,The level of expressed mRNA in the presence of chemical substance/The level of expressed mRNA in the absence of chemical substance,"yeast gene YFL032W, cultured two hours with substance",2.4
same,The level of expressed mRNA in the presence of chemical substance/The level of expressed mRNA in the absence of chemical substance,"yeast gene YFL044C, cultured two hours with substance",4.7
same,The level of expressed mRNA in the presence of chemical substance/The level of expressed mRNA in the absence of chemical substance,"yeast gene YFR017C, cultured two hours with substance",1.7
same,level of expressed mRNA in the presence of chemical substance / level in the absence of chemical substance,"yeast gene YFR026C, cultured two hours with the chemical substance",1.1
same,The level of expressed mRNA in the presence of chemical substance/The level of expressed mRNA in the absence of chemical substance,"yeast gene YFR044C, cultured two hours with substance",3.1
same,The level of expressed mRNA in the presence of chemical substance/The level of expressed mRNA in the absence of chemical substance,"yeast gene YGL037C, cultured two hours with substance",2.3
same,level of expressed mRNA in the presence of chemical substance / level in the absence of chemical substance,"yeast gene YGL088W, cultured two hours with the chemical substance",0.7
same,The level of expressed mRNA in the presence of chemical substance/The level of expressed mRNA in the absence of chemical substance,"yeast gene YGL187C, mitochondria-located protein gene, cultured two hours with substance",0.7
same,The level of expressed mRNA in the presence of chemical substance/The level of expressed mRNA in the absence of chemical substance,"yeast gene YGL191W, mitochondria-located protein gene, cultured two hours with substance",1.1
same,level of expressed mRNA in the presence of chemical substance / level in the absence of chemical substance,"yeast gene YGR038W, cultured two hours with the chemical substance",1.2
same,The level of expressed mRNA in the presence of chemical substance/The level of expressed mRNA in the absence of chemical substance,"yeast gene YGR043C, cultured for two hours with substance",6.9
same,The level of expressed mRNA in the presence of chemical substance/The level of expressed mRNA in the absence of chemical substance,"yeast gene YGR101W, cultured two hours with substance",2.4
same,The level of expressed mRNA in the presence of chemical substance/The level of expressed mRNA in the absence of chemical substance,"yeast gene YGR110W, cultured two hours with substance",3.6
same,level of expressed mRNA in the presence of chemical substance / level in the absence of chemical substance,"yeast gene YGR139W, cultured two hours with the chemical substance",0.4
same,The level of expressed mRNA in the presence of chemical substance/The level of expressed mRNA in the absence of chemical substance,"yeast gene YGR146C, cultured two hours with substance",1.7
same,The level of expressed mRNA in the presence of chemical substance/The level of expressed mRNA in the absence of chemical substance,"yeast gene YGR154C, cultured two hours with substance",2.5
same,The level of expressed mRNA in the presence of chemical substance/The level of expressed mRNA in the absence of chemical substance,"yeast gene YGR161C, cultured two hours with substance",2.8
same,The level of expressed mRNA in the presence of chemical substance/The level of expressed mRNA in the absence of chemical substance,"yeast gene YGR231C, DNA repair protein genes, cultured two hours with substance",3.9
same,level of expressed mRNA in the presence of chemical substance / level in the absence of chemical substance,"yeast gene YGR243W, cultured two hours with the chemical substance",1.1
same,The level of expressed mRNA in the presence of chemical substance/The level of expressed mRNA in the absence of chemical substance,"yeast gene YGR256W, cultured for two hours with substance",3.9
same,The level of expressed mRNA in the presence of chemical substance/The level of expressed mRNA in the absence of chemical substance,"yeast gene YGR268C, cultured two hours with substance",2.8
same,level of expressed mRNA in the presence of chemical substance / level in the absence of chemical substance,"yeast gene YGR293C, cultured two hours with the chemical substance",0.7
same,level of expressed mRNA in the presence of chemical substance / level in the absence of chemical substance,"yeast gene YHL006C, cultured two hours with the chemical substance",1.1
same,level of expressed mRNA in the presence of chemical substance / level in the absence of chemical substance,"yeast gene YHR095W, cultured two hours with the chemical substance",0.7
same,level of expressed mRNA in the presence of chemical substance / level in the absence of chemical substance,"yeast gene YHR105W, cultured two hours with the chemical substance",1.4
same,level of expressed mRNA in the presence of chemical substance / level in the absence of chemical substance,"yeast gene YHR181W, cultured two hours with the chemical substance",0.7
same,The level of expressed mRNA in the presence of chemical substance/The level of expressed mRNA in the absence of chemical substance,"yeast gene YHR199C, cultured two hours with substance",2.1
same,The level of expressed mRNA in the presence of chemical substance/The level of expressed mRNA in the absence of chemical substance,"yeast gene YIL087C, cultured two hours with substance",2.4
same,The level of expressed mRNA in the presence of chemical substance/The level of expressed mRNA in the absence of chemical substance,"yeast gene YIL122W, cultured two hours with the chemical substance",0.7
same,level of expressed mRNA in the presence of chemical substance / level in the absence of chemical substance,"yeast gene YIL127C, cultured two hours with the chemical substance",0.4
same,level of expressed mRNA in the presence of chemical substance / level in the absence of chemical substance,"yeast gene YJL017W, cultured two hours with the chemical substance",1.5
same,level of expressed mRNA in the presence of chemical substance / level in the absence of chemical substance,"yeast gene YJL037W, cultured two hours with the chemical substance",1.1
same,The level of expressed mRNA in the presence of chemical substance/The level of expressed mRNA in the absence of chemical substance,"yeast gene YJL057C, cultured two hours with substance",2.5
same,The level of expressed mRNA in the presence of chemical substance/The level of expressed mRNA in the absence of chemical substance,"yeast gene YJL082W, cultured two hours with substance",2.1
same,level of expressed mRNA in the presence of chemical substance / level in the absence of chemical substance,"yeast gene YJL097W, cultured two hours with the chemical substance",0.7
same,The level of expressed mRNA in the presence of chemical substance/The level of expressed mRNA in the absence of chemical substance,"yeast gene YJL144W, cultured two hours with substance",3.9
same,The level of expressed mRNA in the presence of chemical substance/The level of expressed mRNA in the absence of chemical substance,"yeast gene YJL151C, cultured two hours with substance",2.4
same,The level of expressed mRNA in the presence of chemical substance/The level of expressed mRNA in the absence of chemical substance,"yeast gene YJL161W, cultured two hours with substance",2.5
same,level of expressed mRNA in the presence of chemical substance / level in the absence of chemical substance,"yeast gene YJR030C, cultured two hours with the chemical substance",0.7
same,The level of expressed mRNA in the presence of chemical substance/The level of expressed mRNA in the absence of chemical substance,"yeast gene YJR046W, DNA repair protein genes, cultured two hours with substance",3.0
same,The level of expressed mRNA in the presence of chemical substance/The level of expressed mRNA in the absence of chemical substance,"yeast gene YJR074W, cultured two hours with substance",2.8
same,The level of expressed mRNA in the presence of chemical substance/The level of expressed mRNA in the absence of chemical substance,"yeast gene YJR121W, mitochondria-located protein gene, cultured two hours with substance",1.0
same,The level of expressed mRNA in the presence of chemical substance/The level of expressed mRNA in the absence of chemical substance,yeast gene YJR123W,0.1
same,level of expressed mRNA in the presence of chemical substance / level in the absence of chemical substance,"yeast gene YKL051W, cultured two hours with the chemical substance",1.2

# Source: patent US20100041089A1, “IMPROVED METHOD FOR DETECTING CHEMICAL […]” (priority 2006, published 2010)
